# Reference: US6262064A, “Octahydrobenzo[f]quinoline-based receptor agonists and antagonists” (priority 1999, dated 2001)
# Read-outs that look alike come from different tables or passages of the source.
# Assays:
# [1] = molecular target: T1, 5HT1A serotonin receptor (Bos taurus, UniProt F6Q2H9); experiment: Serotonin (5HT1A) binding assay ([3H]-8-OH-DPAT); parameters: species or system bovine
# T1 construct: bovine hippocampus; from tissue; host or cells: bovine hippocampus
# T1 sequence (F6Q2H9 1-422): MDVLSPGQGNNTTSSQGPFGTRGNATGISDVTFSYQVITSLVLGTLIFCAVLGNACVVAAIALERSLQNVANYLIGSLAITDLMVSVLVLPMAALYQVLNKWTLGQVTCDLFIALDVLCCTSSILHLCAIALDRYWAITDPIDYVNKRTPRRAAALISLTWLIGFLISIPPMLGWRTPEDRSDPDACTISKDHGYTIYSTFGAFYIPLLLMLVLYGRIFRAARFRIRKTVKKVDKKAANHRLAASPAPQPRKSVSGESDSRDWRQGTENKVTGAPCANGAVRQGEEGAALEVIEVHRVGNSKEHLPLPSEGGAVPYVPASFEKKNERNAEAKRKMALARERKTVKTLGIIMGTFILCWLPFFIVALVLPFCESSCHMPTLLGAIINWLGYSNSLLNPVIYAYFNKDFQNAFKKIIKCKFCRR
# [2] = molecular target: alpha2-adrenergic receptor; experiment: Alpha2-adrenergic (non-selective) binding assay ([3H]RX 781094); parameters: species or system rat; conditions: for α2 receptor binding affinity: in words
# [3] = molecular target: T2, 5HT2 serotonin receptor (Rattus norvegicus, UniProt P14842); experiment: Serotonin (5HT2) binding assay ([3H]Ketanserin)
# T2 construct: rat cortical membranes; from tissue; host or cells: rat cortex membranes
# T2 sequence (P14842 whole entry): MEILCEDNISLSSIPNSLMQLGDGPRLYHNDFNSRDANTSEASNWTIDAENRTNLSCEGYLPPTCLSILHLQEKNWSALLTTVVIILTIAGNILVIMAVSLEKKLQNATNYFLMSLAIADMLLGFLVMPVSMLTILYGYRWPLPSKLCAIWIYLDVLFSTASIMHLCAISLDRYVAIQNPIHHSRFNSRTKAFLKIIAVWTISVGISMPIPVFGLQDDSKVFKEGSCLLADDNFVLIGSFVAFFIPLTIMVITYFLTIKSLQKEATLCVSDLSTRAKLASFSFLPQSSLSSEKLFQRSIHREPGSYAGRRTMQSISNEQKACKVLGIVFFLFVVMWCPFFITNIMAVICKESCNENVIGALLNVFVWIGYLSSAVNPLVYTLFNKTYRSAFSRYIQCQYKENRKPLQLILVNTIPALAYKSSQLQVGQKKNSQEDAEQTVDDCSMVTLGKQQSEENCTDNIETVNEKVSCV
# Experimental: The final ligand concentration was 1.0 nM.
# [4] = molecular target: T3, D2 dopamine receptor (Rattus norvegicus, UniProt P61169); experiment: Dopamine D2 binding assay ([3H]Sulpiride); conditions: for dopamine receptor binding affinity / selectivity for the D2 over the D1 dopamine receptor: in words
# T3 construct: rat striatal membranes; from tissue; host or cells: rat striatum membranes
# T3 sequence (P61169 whole entry): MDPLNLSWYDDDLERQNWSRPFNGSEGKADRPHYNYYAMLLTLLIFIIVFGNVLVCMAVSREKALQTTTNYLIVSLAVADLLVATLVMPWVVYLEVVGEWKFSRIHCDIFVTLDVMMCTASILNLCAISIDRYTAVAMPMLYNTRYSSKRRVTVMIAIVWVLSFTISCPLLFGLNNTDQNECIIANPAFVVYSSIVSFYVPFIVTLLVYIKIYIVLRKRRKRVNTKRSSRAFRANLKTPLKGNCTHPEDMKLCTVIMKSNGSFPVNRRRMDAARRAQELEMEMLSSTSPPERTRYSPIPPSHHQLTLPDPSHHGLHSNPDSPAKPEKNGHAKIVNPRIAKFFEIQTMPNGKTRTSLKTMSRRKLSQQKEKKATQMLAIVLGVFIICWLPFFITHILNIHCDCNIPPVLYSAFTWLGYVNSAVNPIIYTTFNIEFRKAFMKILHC
# Experimental: The final ligand concentration was 0.5 nM.
# [5] = tested on: alpha1-adrenergic receptor; conditions: for α1 receptor binding affinity: in words
# Experimental: In these assays, the binding reaction was initiated by the addition of varying concentrations of the potential binding composition and a radioligand to an appropriate tissue. The assay was then incubated to allow binding. Binding was then terminated by dilution of the assay with a cold buffer, followed by rapid vacuum filtration onto Whatman GI/C filters that were presoaked in 0.1% polyethylene imine for at least 3 hours. Radioactivity trapped onto the filters was determined and compared to control values in order to ascertain any interactions of test compounds with the binding sites. Binding affinity analyses were performed by Novascreen, Division of the Adheron Corporation, Hanover, Md.
# Incubation was conducted in 50 mM TRIS-HCl (pH 7.7) at 25° C. for 60 minutes. […] The final ligand concentration was 0.5 nm.
# [6] = molecular target: 5HT1 serotonin receptor; experiment: Serotonin (5HT1) binding assay; conditions: read-out: Ki of reference compounds, 5HT1; Table VII
# Experimental: In these assays, the binding reaction was initiated by the addition of varying concentrations of the potential binding composition and a radioligand to an appropriate tissue. The assay was then incubated to allow binding. Binding was then terminated by dilution of the assay with a cold buffer, followed by rapid vacuum filtration onto Whatman GI/C filters that were presoaked in 0.1% polyethylene imine for at least 3 hours. Radioactivity trapped onto the filters was determined and compared to control values in order to ascertain any interactions of test compounds with the binding sites.
# Incubation was conducted in 50 mM TRIS-HCl (pH 7.4) at 45 minutes for 37° C. The radioligand used was [^3 H]Hydroxytryptamine binoxalate (15-30 Ci/mmol). The final ligand concentration was 3.0 nM.
# [7] = molecular target: T4, D2 receptor (Rattus norvegicus, UniProt P61169); experiment: D2 receptor agonist evaluation (membrane binding with and without Gpp(NH)p)
# T4 construct: expressed in transfected cells
# T4 sequence (P61169 whole entry): as above
# Experimental: To determine the D2, D3 or D4 receptor selectivity, competition binding assays were performed using membranes from fibroblast cell lines transfected with D2444 (rat), D3 (human) or D4 (rat) receptors. All cell lines were maintained in Dulbecco's modified Eagle's media (DMEM) supplemented with 10 % fetal bovine serum at 37° C. with 5% CO2. Transfected cells were maintained in DMEM containing 300 μg/mL of the antibiotic G418 (Gibco).
# To determine whether or not compounds of this invention were D2 receptor agonists, a membrane binding assay, utilizing the D2 cell line described in Example 26, was performed in the presence and absence of the non-hydrolyzable guanine nucleotide (GTP analogue) Gpp(NH)p.
# [8] = 5-HT1A receptor binding affinity Ki, Table III, bovine hippocampus
# [9] = Table III, rat cortical membranes, read-out: α2 receptor binding affinity Ki
# [10] = Table III, rat striatal membranes, read-out: D2 receptor binding affinity Ki
# [11] = read-out: α1 receptor binding affinity Ki, Table III, rat forebrain membranes
# [12] = Table V, read-out: Ki of reference compounds, alpha2-adrenergic
# [13] = Table VIII, read-out: Ki of reference compounds, 5HT1A
smiles,measurement,setting,value
"Oc1cccc2c1CC[C@@H]1[C@@H]2CCCN1CCc1ccccc1 (single isomer, unassigned) [trans-(+)-25]",Ki,[1]; [8],410 nM
same,Ki,[2]; [9],440 nM
same,5HT2 serotonin receptor binding affinity,[3],high binding affinities for the 5HT2 serotonin receptor
same,Ki,[3]; 5-HT2 receptor binding affinity Ki,9.5 nM
same,Ki,[4]; [10],400 nM
same,α1 receptor binding affinity,[5],high binding affinities for the α1 receptor
same,Ki,[5]; [11],5.5 nM
"Cc1ccc(N(CC2=NCCN2)c2cccc(O)c2)cc1 [Phentolamine, reference compound]",Ki,[2]; [12],1.7 nM
"COc1ccc2[nH]cc(CCN)c2c1 [5-Methoxytryptamine, reference compound]",Ki,[6],45.8 nM
Oc1ccc2c(c1O)CC[C@@H]1[C@@H]2CCCN1CCc1cccs1 (relative stereo) [(-)-trans-33],5HT2 serotonin receptor binding affinity,[3],high binding affinities for the 5HT2 serotonin receptor
"COc1cccc(OC)c1OCCNCC1COc2ccccc2O1 (stereo not shown) [WB4101, reference compound]",Ki,"[5]; read-out: Ki of reference compounds, alpha1-adrenergic, Table IV",2.6 nM
"O=C(c1ccc(F)cc1)C1CCN(CCn2c(=O)[nH]c3ccccc3c2=O)CC1 [Ketanserin, reference compound]",Ki,[1]; [13],> 10000 nM
"Oc1cccc2c1CC[C@H]1[C@@H]2CCCN1CCc1ccccc1 (relative stereo) [cis-25, Cis-7-hydroxy-4-phenethyl-1,2,3,4,4a,5,6,10b-octahydrobenzo[f]quinoline]",Ki,[2]; [9],0.27 nM
same,α2 receptor binding affinity,[2],high binding affinities for the α2 receptor
same,Ratio of +:- Gpp(NH)p,[7]; Table XV,1.07
same,Ki,"[7]; Table XV, with Gpp(NH)p, read-out: D2 receptor binding Ki with Gpp(NH)p",176 ± 213 nM
same,Ki,"[7]; Table XV, without Gpp(NH)p, read-out: D2 receptor binding Ki without Gpp(NH)p",164 ± 51 nM
same,D2 agonist/antagonist assessment,[7]; in words,appear to be an antagonist
same,effect of GTP on D2 receptor binding,[7]; in words,the addition of GTP did not significantly affect receptor binding affinity
same,Ki,[4],6.6 nM
same,dopamine receptor binding affinity,[4],good dopamine receptor binding affinities
same,selectivity for the D2 over the D1 dopamine receptor,[4],highly selective for the D2 dopamine receptor over the D1 dopamine receptor
same,α1 receptor binding affinity,[5],high binding affinities for the α1 receptor
same,Ki,[5]; [11],16 nM
"Clc1cccc(Cl)c1N=C1NCCN1 [Clonidine, reference compound]",Ki,[2]; [12],14 nM
"CCCN(CCC)C1CCc2cccc(O)c2C1 (stereo not shown) [8-OH-DPAT, reference compound]",Ki,"[1]; Ki characterizing the 5HT1A assay, assay characterization",2 nM
same,Ki,[1]; [13],1.4 nM
"Oc1ccc2c(c1O)CC[C@H]1[C@H]2CCCN1CCc1ccccc1 (single isomer, unassigned) [trans-(+)-9, Trans-(+)7,8-dihydroxy-4-phenethyl-1,2,3,4,4a,5,6, 10b-octahydrobenzo[f]quinoline]",Ki,[1]; [8],910 nM
same,Ki,[2]; [9],550 nM
same,Ki,[4]; [10],2500 nM
same,α1 receptor binding affinity,[5],high binding affinities for the α1 receptor
same,Ki,[5]; [11],53 nM
Oc1cccc2c1CC[C@@H]1[C@@H]2CCCN1CCc1cccs1 (relative stereo) [trans-31],Ki,"[1]; Table III, bovine hippocampus, read-out: 5-HT1A receptor binding affinity Ki",36 nM
same,5HT1A serotonin receptor binding affinity,[1]; in words,high binding affinities for the 5HT1A serotonin receptor
same,Ki,[2]; [9],7.2 nM
same,α2 receptor binding affinity,[2],high binding affinities for the α2 receptor
same,Ki,[3],80 nM
same,5HT2 serotonin receptor binding affinity,[3]; in words,high binding affinities for the 5HT2 serotonin receptor
same,Ki,[4],1.9 nM
same,dopamine receptor binding affinity,[4],good dopamine receptor binding affinities
same,selectivity for the D2 over the D1 dopamine receptor,[4],highly selective for the D2 dopamine receptor over the D1 dopamine receptor
same,α1 receptor binding affinity,[5],high binding affinities for the α1 receptor
same,Ki,[5]; [11],17 nM
"Oc1ccc2c(c1O)CC[C@@H]1[C@H]2CCCN1CCc1ccccc1 (single isomer, unassigned) [cis-(-)-9]",Ki,[2]; [9],74 nM
same,α2 receptor binding affinity,[2],high binding affinities for the α2 receptor
same,Ki,[4],54 nM
same,dopamine receptor binding affinity,[4],good dopamine receptor binding affinities
same,selectivity for the D2 over the D1 dopamine receptor,[4],highly selective for the D2 dopamine receptor over the D1 dopamine receptor
same,Ki,[5]; [11],180 nM
